Laboratory results taken from patent US12258355B2, “Probes for imaging huntingtin protein” (CHDI Foundation, Inc., priority 2014, dated 2025).

Target: T1, Q46 protein aggregates (Homo sapiens, UniProt P42858)
T1 construct: fused on or other part: GST at the N-terminus, cut off with thrombin before the test to start aggregation; The wells held aggregated Q46 without GST
Experiment: Q46 radioligand binding assay (RBA)
Details: 10 nM ligand [3H3]MK-3328
Procedure, shortened: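 Aggregates from thrombin-cleaved GST-Q46 (16 h, 37° C) at 5 μM monomer-equivalent were pre-incubated 20 min at room temperature with compound (1 μM to 30 pM) in 150 mM NaCl, 50 mM Tris pH 8.0, then 60 min at 37° C with 10 nM [^3H3]MK-3328. Bound radioactivity was filtered and counted; IC50 came from a four-parameter global fit normalized to vehicle and 3 μM unlabelled MK-3328.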

T1 sequence (P42858 with tags, fused parts or gaps with the stated changes, form open): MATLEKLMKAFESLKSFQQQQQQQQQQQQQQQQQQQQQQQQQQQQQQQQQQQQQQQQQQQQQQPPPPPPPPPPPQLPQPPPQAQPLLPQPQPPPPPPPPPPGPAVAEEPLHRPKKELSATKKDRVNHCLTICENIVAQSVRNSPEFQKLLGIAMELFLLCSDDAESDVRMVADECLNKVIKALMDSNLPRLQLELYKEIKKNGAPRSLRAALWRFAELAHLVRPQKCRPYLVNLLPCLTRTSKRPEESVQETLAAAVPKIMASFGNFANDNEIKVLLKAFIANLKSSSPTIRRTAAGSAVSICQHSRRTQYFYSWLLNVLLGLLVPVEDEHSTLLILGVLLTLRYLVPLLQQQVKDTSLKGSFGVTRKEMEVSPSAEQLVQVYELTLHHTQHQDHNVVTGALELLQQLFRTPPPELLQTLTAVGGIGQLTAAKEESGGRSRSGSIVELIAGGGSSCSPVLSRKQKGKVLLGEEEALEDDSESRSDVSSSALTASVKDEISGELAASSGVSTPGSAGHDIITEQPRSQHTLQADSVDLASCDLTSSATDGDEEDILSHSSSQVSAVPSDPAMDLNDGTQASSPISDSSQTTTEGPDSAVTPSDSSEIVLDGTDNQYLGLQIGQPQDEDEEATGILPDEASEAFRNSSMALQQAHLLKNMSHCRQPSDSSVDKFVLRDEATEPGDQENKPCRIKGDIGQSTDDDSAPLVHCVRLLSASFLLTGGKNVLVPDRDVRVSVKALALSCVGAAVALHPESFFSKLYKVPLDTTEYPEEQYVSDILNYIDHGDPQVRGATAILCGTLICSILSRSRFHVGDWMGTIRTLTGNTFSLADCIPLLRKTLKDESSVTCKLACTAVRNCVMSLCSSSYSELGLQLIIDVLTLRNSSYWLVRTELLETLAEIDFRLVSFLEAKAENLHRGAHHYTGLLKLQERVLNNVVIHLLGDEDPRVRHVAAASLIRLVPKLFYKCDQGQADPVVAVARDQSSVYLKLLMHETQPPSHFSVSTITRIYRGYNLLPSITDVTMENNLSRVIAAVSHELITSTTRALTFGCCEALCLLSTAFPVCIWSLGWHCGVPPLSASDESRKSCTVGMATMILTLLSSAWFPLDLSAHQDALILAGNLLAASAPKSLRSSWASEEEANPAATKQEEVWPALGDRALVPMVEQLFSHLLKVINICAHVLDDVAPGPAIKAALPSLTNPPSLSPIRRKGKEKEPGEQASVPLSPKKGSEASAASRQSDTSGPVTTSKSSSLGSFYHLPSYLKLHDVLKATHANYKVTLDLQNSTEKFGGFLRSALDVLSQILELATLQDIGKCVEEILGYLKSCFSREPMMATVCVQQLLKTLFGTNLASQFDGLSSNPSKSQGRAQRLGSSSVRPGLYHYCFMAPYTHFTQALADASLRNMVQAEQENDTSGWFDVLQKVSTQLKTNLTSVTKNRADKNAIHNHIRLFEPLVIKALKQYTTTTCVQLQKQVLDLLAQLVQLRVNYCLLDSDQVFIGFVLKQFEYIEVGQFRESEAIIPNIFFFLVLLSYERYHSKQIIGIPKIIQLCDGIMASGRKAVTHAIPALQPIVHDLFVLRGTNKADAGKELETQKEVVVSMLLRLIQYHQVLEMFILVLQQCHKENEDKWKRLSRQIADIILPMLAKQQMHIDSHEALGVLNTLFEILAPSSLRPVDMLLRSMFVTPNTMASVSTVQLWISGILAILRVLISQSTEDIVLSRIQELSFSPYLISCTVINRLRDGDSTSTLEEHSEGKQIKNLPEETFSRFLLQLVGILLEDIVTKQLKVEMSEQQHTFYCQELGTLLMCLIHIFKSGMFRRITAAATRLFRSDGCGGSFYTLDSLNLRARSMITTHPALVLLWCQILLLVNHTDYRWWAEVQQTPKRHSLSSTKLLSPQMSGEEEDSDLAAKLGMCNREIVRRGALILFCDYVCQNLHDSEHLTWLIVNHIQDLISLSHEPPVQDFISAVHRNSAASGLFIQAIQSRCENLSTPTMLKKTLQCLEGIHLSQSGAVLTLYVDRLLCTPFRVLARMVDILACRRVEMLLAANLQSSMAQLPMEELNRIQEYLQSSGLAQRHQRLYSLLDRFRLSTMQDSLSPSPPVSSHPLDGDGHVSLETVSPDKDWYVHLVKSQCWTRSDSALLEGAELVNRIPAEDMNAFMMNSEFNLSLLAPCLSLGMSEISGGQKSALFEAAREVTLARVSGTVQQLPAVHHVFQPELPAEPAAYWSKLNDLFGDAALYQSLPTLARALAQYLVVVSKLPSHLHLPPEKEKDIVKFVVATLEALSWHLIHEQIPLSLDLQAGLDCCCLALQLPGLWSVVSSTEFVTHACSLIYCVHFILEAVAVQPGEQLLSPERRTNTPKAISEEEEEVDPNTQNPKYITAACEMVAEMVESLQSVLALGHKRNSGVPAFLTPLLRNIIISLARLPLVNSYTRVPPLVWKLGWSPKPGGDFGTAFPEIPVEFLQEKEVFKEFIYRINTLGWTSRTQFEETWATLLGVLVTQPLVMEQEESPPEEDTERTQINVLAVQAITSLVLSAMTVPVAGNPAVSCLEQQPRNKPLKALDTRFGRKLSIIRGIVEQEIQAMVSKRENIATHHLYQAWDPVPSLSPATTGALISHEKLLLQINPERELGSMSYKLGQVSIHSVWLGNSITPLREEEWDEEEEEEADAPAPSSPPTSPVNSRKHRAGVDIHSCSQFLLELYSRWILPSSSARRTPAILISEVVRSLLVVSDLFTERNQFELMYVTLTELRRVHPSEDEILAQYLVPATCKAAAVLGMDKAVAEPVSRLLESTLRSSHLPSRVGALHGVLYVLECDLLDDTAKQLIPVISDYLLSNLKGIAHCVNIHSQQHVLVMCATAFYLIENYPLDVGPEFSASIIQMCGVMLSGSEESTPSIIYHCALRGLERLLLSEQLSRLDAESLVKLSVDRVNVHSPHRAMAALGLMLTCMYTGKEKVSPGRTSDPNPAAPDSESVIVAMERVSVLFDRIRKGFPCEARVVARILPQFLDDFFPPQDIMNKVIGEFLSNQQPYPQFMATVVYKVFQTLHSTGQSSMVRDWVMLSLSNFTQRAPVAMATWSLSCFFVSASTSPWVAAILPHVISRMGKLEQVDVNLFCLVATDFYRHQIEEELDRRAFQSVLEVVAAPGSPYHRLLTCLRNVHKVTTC

Row | SMILES | IC50 [nM]
1 | COc1ccc(COc2ccc3oc(-c4ccncc4)nc3c2)nc1 [5-[(5-methoxypyridin-2-yl)methoxy]-2-(pyridin-4-yl)-1,3-benzoxazole] | < 100
2 | COc1ccc(COc2ccc3oc(-c4ccncn4)nc3c2)nc1 [5-[(5-methoxypyridin-2-yl)methoxy]-2-(pyrimidin-4-yl)-1,3-benzoxazole] | < 100
3 | COc1ccc(COc2ccc3oc(-c4ccc(-c5ncccn5)cc4)nc3c2)nc1 [5-[(5-methoxypyridin-2-yl)methoxy]-2-[4-(pyrimidin-2-yl)phenyl]-1,3-benzoxazole] | < 100
4 | COc1ccc(COc2ccc3oc(-c4ccc(C(F)(F)F)nc4)nc3c2)nc1 [5-[(5-methoxypyridin-2-yl)methoxy]-2-[6-(trifluoromethyl)pyridin-3-yl]-1,3-benzoxazole] | < 100
5 | COc1ccc(COc2ccc3oc(N4Cc5cccnc5C4)nc3c2)nc1 [5-[(5-methoxypyridin-2-yl)methoxy]-2-{5H,6H,7H-pyrrolo[3,4-b]pyridin-6-yl}-1,3-benzoxazole] | < 100
6 | COc1ccc(COc2cnc3oc(-c4cccnc4)nc3c2)[n+]([O-])c1 [5-methoxy-2-({[2-(pyridin-3-yl)-[1,3]oxazolo[5,4-b]pyridin-6-yl]oxy}methyl)pyridin-1-ium-1-olate] | < 100
7 | COc1cnc(COc2cnc3oc(-c4cccnc4)nc3c2)nc1 [5-methoxy-2-({[2-(pyridin-3-yl)-[1,3]oxazolo[5,4-b]pyridin-6-yl]oxy}methyl)pyrimidine] | < 100
8 | COc1ccc2c(c1)CN(c1ccc3oc(-c4cccnc4)nc3c1)C2=O [5-methoxy-2-[2-(pyridin-3-yl)-1,3-benzoxazol-5-yl]-2,3-dihydro-1H-isoindol-1-one] | < 100
9 | COc1ccc2c(c1)CN(c1cnc3oc(-c4cccnc4)nc3c1)C2=O [5-methoxy-2-[2-(pyridin-3-yl)-[1,3]oxazolo[5,4-b]pyridin-6-yl]-2,3-dihydro-1H-isoindol-1-one] | < 100
10 | COc1ccc(C(=O)Nc2ccc3oc(-c4ccc(=O)n(C)n4)nc3c2)nc1 [5-methoxy-N-[2-(1-methyl-6-oxo-1,6-dihydropyridazin-3-yl)-1,3-benzoxazol-5-yl]pyridine-2-carboxamide] | < 100
11 | COc1cncc(C(=O)Nc2ccc3oc(-c4ccc(=O)n(C)n4)nc3c2)c1 [5-methoxy-N-[2-(1-methyl-6-oxo-1,6-dihydropyridazin-3-yl)-1,3-benzoxazol-5-yl]pyridine-3-carboxamide] | < 100
12 | COc1cnc(C(=O)Nc2ccc3oc(-c4cccc(C)c4)nc3c2)cn1 [5-methoxy-N-[2-(3-methylphenyl)-1,3-benzoxazol-5-yl]pyrazine-2-carboxamide] | < 100
13 | COc1ccc(C(=O)Nc2ccc3oc(-c4cccc(C)c4)nc3c2)nc1 [5-methoxy-N-[2-(3-methylphenyl)-1,3-benzoxazol-5-yl]pyridine-2-carboxamide] | < 100
14 | COc1ccc(C(=O)Nc2ccc3oc(-c4cccnc4)nc3c2)nc1 [5-methoxy-N-[2-(pyridin-3-yl)-1,3-benzoxazol-5-yl]pyridine-2-carboxamide] | < 100
15 | COc1cncc(C(=O)Nc2ccc3oc(-c4cccnc4)nc3c2)c1 [5-methoxy-N-[2-(pyridin-3-yl)-1,3-benzoxazol-5-yl]pyridine-3-carboxamide] | < 100
16 | COc1ccc(NCc2ccc3oc(-c4cccnc4)nc3c2)nc1 [5-methoxy-N-{[2-(pyridin-3-yl)-1,3-benzoxazol-5-yl]methyl}pyridin-2-amine] | 100 to 500
17 | Cc1cncc(C(=O)Nc2ccc3oc(-c4cccnc4)nc3c2)c1 [5-methyl-N-[2-(pyridin-3-yl)-1,3-benzoxazol-5-yl]pyridine-3-carboxatmide] | < 100
18 | CNC(=O)c1ccc(-c2nc3cc(OCc4ccc(O)cn4)ccc3o2)cn1 [5-{5-[(5-hydroxypyridin-2-yl)methoxy]-1,3-benzoxazol-2-yl}-N-methylpyridine-2-carboxamide] | < 100
19 | COc1ccc(COc2ccc3oc(-c4ccc(=O)[nH]c4)nc3c2)nc1 [5-{5-[(5-methoxypyridin-2-yl)methoxy]-1,3-benzoxazol-2-yl}-1,2-dihydropyridin-2-one] | < 100
20 | COc1ccc(COc2ccc3oc(-c4cn(C)c(=O)cn4)nc3c2)nc1 [5-{5-[(5-methoxypyridin-2-yl)methoxy]-1,3-benzoxazol-2-yl}-1-methyl-1,2-dihydropyrazin-2-one] | < 100
21 | COc1ccc(COc2ccc3oc(-c4ccc(=O)n(C)c4)nc3c2)nc1 [5-{5-[(5-methoxypyridin-2-yl)methoxy]-1,3-benzoxazol-2-yl}-1-methyl-1,2-dihydropyridin-2-one] | < 100
22 | CNC(=O)c1ccc(-c2nc3cc(OCc4ccc(OC)cn4)ccc3o2)c[n+]1[O-] [5-{5-[(5-methoxypyridin-2-yl)methoxy]-1,3-benzoxazol-2-yl}-2-(methylcarbamoyl)pyridin-1-ium-1-olate] | < 100
23 | CNc1ccc(-c2nc3cc(OCc4ccc(OC)cn4)ccc3o2)cn1 [5-{5-[(5-methoxypyridin-2-yl)methoxy]-1,3-benzoxazol-2-yl}-N-methylpyridin-2-amine] | < 100

Row | SMILES | IC50 [nM]
24 | CNC(=O)c1ccc(-c2nc3cc(OCc4ccc(OC)cn4)ccc3o2)cn1 [5-{5-[(5-methoxypyridin-2-yl)methoxy]-1,3-benzoxazol-2-yl}-N-methylpyridine-2-carboxamide] | < 100
25 | COc1ccc(COc2ccc3oc(-c4ccc(N)nc4)nc3c2)nc1 [5-{5-[(5-methoxypyridin-2-yl)methoxy]-1,3-benzoxazol-2-yl}pyridin-2-amine] | < 100
26 | C1=C(COc2ccc3oc(-c4cccnc4)nc3c2)N2CCN=C2S1 [5-{5H,6H-imidazo[2,1-b][1,3]thiazol-3-ylmethoxy}-2-(pyridin-3-yl)-1,3-benzoxazole] | 100 to 500
27 | CNC(=O)c1ccc(-c2nc3cc(OCc4ccc(OC)cn4)cnc3o2)cn1 [5-{6-[(5-methoxypyridin-2-yl)methoxy]-[1,3]oxazolo[5,4-b]pyridin-2-yl}-N-methylpyridine-2-carboxamide] | < 100
28 | COc1ccc(OCc2ccc3oc(-c4cccnc4)nc3c2)nc1 [5-{[(5-methoxypyridin-2-yl)oxy]methyl}-2-(pyridin-3-yl)-1,3-benzoxazole] | < 100
29 | Cn1nc(-c2nc3cc(OCc4ccc(OCCF)cn4)cnc3o2)ccc1=O [6-(6-{[5-(2-fluoroethoxy)pyridin-2-yl]methoxy}-[1,3]oxazolo[5,4-b]pyridin-2-yl)-2-methyl-2,3-dihydropyridazin-3-one] | < 100
30 | Cn1cc(-c2nc3cc(OCc4ccc(N)cn4)cnc3o2)cn1 [6-({[2-(1-methyl-1H-pyrazol 4-yl)-[1,3]oxazolo[5,4-b]pyridin-6-yl]oxy}methyl)pyridin-3-amine] | 100 to 500
31 | Cn1cc(-c2nc3cc(OCc4ccc(O)cn4)ccc3o2)cn1 [6-({[2-(1-methyl-1H-pyrazol-4-yl)-1,3-benzoxazol-5-yl]oxy}methyl)pyridin-3-ol] | 100 to 500
32 | Oc1ccc(COc2ccc3oc(-c4cccnc4)nc3c2)nc1 [6-({[2-(pyridin-3-yl)-1,3-benzoxazol-5-yl]oxy}methyl)pyridin-3-ol] | < 100
33 | COc1ccc2c(c1)CCN(c1ccc3oc(-c4cccnc4)nc3c1)C2=O [6-methoxy-2-[2-(pyridin-3-yl)-1,3-benzoxazol-5-yl]-1,2,3,4-tetrahydroisoquinolin-1-one] | 100 to 500
34 | COc1ccc2c(=O)n(-c3ccc4oc(-c5cccnc5)nc4c3)ccc2c1 [6-methoxy-2-[2-(pyridin-3-yl)-1,3-benzoxazol-5-yl]-1,2-dihydroisoquinolin-1-one] | 100 to 500
35 | COc1ccc(C(=O)Nc2ccc3oc(-c4cccc(C)c4)nc3c2)cn1 [6-methoxy-N-[2-(3-methylphenyl)-1,3-benzoxazol-5-yl]pyridine-3-carboxamide] | < 100
36 | COc1cccc(C(=O)Nc2ccc3oc(-c4cccnc4)nc3c2)n1 [6-methoxy-N-[2-(pyridin-3-yl)-1,3-benzoxazol-5-yl]pyridine-2-carboxamide] | < 100
37 | O=C(Nc1ccc2oc(-c3cccnc3)nc2c1)c1ccc(Oc2ccccc2)nc1 [6-phenoxy-N-[2-(pyridin-3-yl)-1,3-benzoxazol-5-yl]pyridine-3-carboxamide] | < 100
38 | Cn1nc(-c2nc3cc(OCc4ccc(O)cn4)ccc3o2)ccc1=O [6-{5-[(5-hydroxypyridin-2-yl)methoxy]-1,3-benzoxazol-2-yl}-2-methyl-2,3-dihydropyridazin-3-one] | < 100
39 | COc1ccc(COc2ccc3oc(-c4ccc(=O)n(C)n4)nc3c2)nc1 [6-{5-[(5-methoxypyridin-2-yl)methoxy]-1,3-benzoxazol-2-yl}-2-methyl-2,3-dihydropyridazin-3-one] | < 100
40 | COc1ccc(COc2cnc3oc(-c4ccc(=O)n(C)n4)nc3c2)nc1 [6-{6-[(5-methoxypyridin-2-yl)methoxy]-[1,3]oxazolo[5,4-b]pyridin-2-yl}-2-methyl-2,3-dihydropyridazin-3-one] | < 100
41 | COc1ccc(COc2ccc3oc(N4CCc5cccnc5C4)nc3c2)nc1 [7-{5-[(5-methoxypyridin-2-yl)methoxy]-1,3-benzoxazol-2-yl}-5,6,7,8-tetrahydro-1,7-naphthyridine] | < 100
42 | COc1ccc(/C=C/C(=O)Nc2ccc3oc(-c4cccnc4)nc3c2)cc1 [(2E)-3-(4-methoxyphenyl)-N-[2-(pyridin-3-yl)-1,3-benzoxazol-5-yl]prop-2-enamide] | < 100
43 | O=C(Nc1ccc2oc(-c3cccnc3)nc2c1)OCc1ccc(O)cn1 [(5-hydroxypyridin-2-yl)methyl N-[2-(pyridin-3-yl)-1,3-benzoxazol-5-yl]carbamate] | < 100
44 | COc1ccc(COC(=O)Nc2ccc3oc(-c4cccnc4)nc3c2)nc1 [(5-methoxypyridin-2-yl)methyl N-[2-(pyridin-3-yl)-1,3-benzoxazol-5-yl]carbamate] | < 100
45 | O=C(Nc1ccc2oc(-c3ccccc3)nc2c1)c1ccccc1 [N-(2-phenyl-1,3-benzoxazol-5-yl)benzamide] | < 100
